According to PubChem BioAssay AID248 (DTP/NCI, 2004):
Several values for one entry are separate records, joined by “and”; a condition that tells them apart may be missing. Identical values can stand only once. Toxic doses and inconclusive results are not listed.

Tested on: L1210 leukemia ip in BDF1 mice, survival T/C
Experiment: NCI In Vivo Anticancer Drug Screen. Data for tumor model L1210 Leukemia (intraperitoneal) in B6D2F1 (BDF1) mice
Details: endpoint: mean survival time, higher = longer survival
In short: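 Antitumor effect is assessed in tumor-bearing animals. Survival in the compound arm is compared with a vehicle-dosed control arm and expressed as their quotient.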

[1] = dose: 100.0 mg/kg/injection, schedule: Q01DX001 (ip), vehicle: saline
[2] = dose: 200.0 mg/kg/injection, schedule: Q01DX001 (ip), vehicle: saline
[3] = dose: 400.0 mg/kg/injection, schedule: Q01DX001 (ip), vehicle: saline
[4] = dose: 100.0 mg/kg/injection, schedule: Q04DX002 (ip), vehicle: saline with Tween-80
[5] = dose: 200.0 mg/kg/injection, schedule: Q04DX002 (ip), vehicle: saline with Tween-80
[6] = dose: 400.0 mg/kg/injection, schedule: Q04DX002 (ip), vehicle: saline with Tween-80
[7] = dose: 100.0 mg/kg/injection, schedule: Q04DX003 (ip), vehicle: Klucel (hydroxypropylcellulose) (HPC)
[8] = dose: 200.0 mg/kg/injection, schedule: Q01DX009 (ip), vehicle: Klucel (hydroxypropylcellulose) (HPC)
[9] = dose: 200.0 mg/kg/injection, schedule: Q04DX003 (ip), vehicle: Klucel (hydroxypropylcellulose) (HPC)
[10] = dose: 400.0 mg/kg/injection, schedule: Q01DX009 (ip), vehicle: Klucel (hydroxypropylcellulose) (HPC)
[11] = dose: 400.0 mg/kg/injection, schedule: Q04DX003 (ip), vehicle: Klucel (hydroxypropylcellulose) (HPC)
[12] = dose: 100.0 mg/kg/injection, schedule: Q04DX002 (ip), vehicle: gum acacia
[13] = dose: 200.0 mg/kg/injection, schedule: Q04DX002 (ip), vehicle: gum acacia
[14] = dose: 400.0 mg/kg/injection, schedule: Q04DX002 (ip), vehicle: gum acacia
[15] = dose: 100.0 mg/kg/injection, schedule: Q01DX009 (ip), vehicle: Klucel (hydroxypropylcellulose) (HPC)
[16] = dose: 100.0 mg/kg/injection, schedule: Q01DX009 (ip), vehicle: saline with Tween-80
[17] = dose: 200.0 mg/kg/injection, schedule: Q01DX009 (ip), vehicle: saline with Tween-80
[18] = dose: 100.0 mg/kg/injection, schedule: Q04DX003 (ip), vehicle: saline
[19] = dose: 200.0 mg/kg/injection, schedule: Q04DX003 (ip), vehicle: saline
[20] = dose: 400.0 mg/kg/injection, schedule: Q04DX003 (ip), vehicle: saline
[21] = dose: 100.0 mg/kg/injection, schedule: Q01DX009 (ip), vehicle: saline
[22] = dose: 200.0 mg/kg/injection, schedule: Q01DX009 (ip), vehicle: saline
[23] = dose: 400.0 mg/kg/injection, schedule: Q01DX009 (ip), vehicle: saline

## COCCOC(C)C(/C=N/NC(N)=S)=N/NC(N)=S (stereo not given)
dose: 50.0 mg/kg/injection, schedule: Q01DX001 (ip), vehicle: saline
  T/C: 100 % of control
[1]
  T/C: 100 % of control
[2]
  T/C: 93 % of control
[3]
  T/C: 97 % of control

## COc1ccc(Br)c([N+](=O)[O-])c1
[1]
  T/C: 103 % of control
[2]
  T/C: 97 % of control
[3]
  T/C: 103 % of control

## COc1ccc(N=Cc2cc(Br)ccc2O)cc1
[4]
  T/C: 100 % of control
[5]
  T/C: 104 % of control
[6]
  T/C: 100 % of control

## CCCc1[nH]nc(C(=O)OC)c1N=NN(C)C
dose: 173.0 mg/kg/injection, schedule: Q01DX001 (ip), vehicle: other
  T/C: 110 % of control
dose: 266.0 mg/kg/injection, schedule: Q01DX001 (ip), vehicle: other
  T/C: 112 % of control
dose: 400.0 mg/kg/injection, schedule: Q01DX001 (ip), vehicle: other
  T/C: 115 % of control
dose: 600.0 mg/kg/injection, schedule: Q01DX001 (ip), vehicle: other
  T/C: 123 % of control

## CCCC(=O)CC(=O)C(F)(F)F.CCCC(=O)CC(=O)C(F)(F)F.CCCC(=O)CC(=O)C(F)(F)F.[Er]
dose: 100.0 mg/kg/injection, schedule: Q01DX009 (ip), vehicle: other
  T/C: 104 % of control
dose: 100.0 mg/kg/injection, schedule: Q04DX003 (ip), vehicle: other
  T/C: 110 % of control
dose: 200.0 mg/kg/injection, schedule: Q01DX009 (ip), vehicle: other
  T/C: 106 % of control
dose: 200.0 mg/kg/injection, schedule: Q04DX003 (ip), vehicle: other
  T/C: 107 % of control
dose: 400.0 mg/kg/injection, schedule: Q04DX003 (ip), vehicle: other
  T/C: 108 % of control

## COc1cc2c(cc1OC)C(OC)N(C)c1c-2ccc2cc3c(cc12)OCO3 (stereo not given)
dose: 5.0 mg/kg/injection, schedule: Q01DX009 (ip), vehicle: Klucel (hydroxypropylcellulose) (HPC)
  T/C: 106 % of control
dose: 10.0 mg/kg/injection, schedule: Q01DX009 (ip), vehicle: Klucel (hydroxypropylcellulose) (HPC)
  T/C: 106 % of control
dose: 10.0 mg/kg/injection, schedule: Q01DX009 (ip), vehicle: saline
  T/C: 123 % of control
dose: 20.0 mg/kg/injection, schedule: Q01DX009 (ip), vehicle: Klucel (hydroxypropylcellulose) (HPC)
  T/C: 95 % of control
dose: 20.0 mg/kg/injection, schedule: Q01DX009 (ip), vehicle: steriod suspending solution
  T/C: 163 % of control
dose: 20.0 mg/kg/injection, schedule: Q04DX003 (ip), vehicle: saline
  T/C: 123 % of control
dose: 40.0 mg/kg/injection, schedule: Q01DX009 (ip), vehicle: Klucel (hydroxypropylcellulose) (HPC)
  T/C: 113 % of control
dose: 40.0 mg/kg/injection, schedule: Q04DX003 (ip), vehicle: saline
  T/C: 121 % of control
dose: 80.0 mg/kg/injection, schedule: Q01DX009 (ip), vehicle: Klucel (hydroxypropylcellulose) (HPC)
  T/C: 111 % of control
dose: 80.0 mg/kg/injection, schedule: Q04DX003 (ip), vehicle: saline
  T/C: 124 % of control
dose: 100.0 mg/kg/injection, schedule: Q04DX002 (ip), vehicle: Klucel (hydroxypropylcellulose) (HPC)
  T/C: 118 % of control and 119 % of control
[7]
  T/C: 116 % of control
dose: 160.0 mg/kg/injection, schedule: Q01DX009 (ip), vehicle: Klucel (hydroxypropylcellulose) (HPC)
  T/C: 109 % of control
dose: 160.0 mg/kg/injection, schedule: Q04DX003 (ip), vehicle: saline
  T/C: 112 % of control
[8]
  T/C: 122 % of control
dose: 200.0 mg/kg/injection, schedule: Q04DX002 (ip), vehicle: Klucel (hydroxypropylcellulose) (HPC)
  T/C: 123 % of control
[9]
  T/C: 111 % of control
dose: 320.0 mg/kg/injection, schedule: Q01DX009 (ip), vehicle: Klucel (hydroxypropylcellulose) (HPC)
  T/C: 111 % of control
[10]
  T/C: 124 % of control
dose: 400.0 mg/kg/injection, schedule: Q04DX002 (ip), vehicle: Klucel (hydroxypropylcellulose) (HPC)
  T/C: 152 % of control
[11]
  T/C: 106 % of control

## CCCSc1ncnc2c1ncn2COC(=O)NC
[1]
  T/C: 97 % of control
[2]
  T/C: 108 % of control
[3]
  T/C: 108 % of control

## CCCCNC(=O)CCl
[1]
  T/C: 96 % of control
[2]
  T/C: 113 % of control

## O=Cc1[nH]c(=S)[nH]c(=O)c1Cc1cc([N+](=O)[O-])ccc1O
dose: 100.0 mg/kg/injection, schedule: Q01DX001 (ip), vehicle: saline with Tween-80
  T/C: 93 % of control
dose: 200.0 mg/kg/injection, schedule: Q01DX001 (ip), vehicle: saline with Tween-80
  T/C: 104 % of control
dose: 400.0 mg/kg/injection, schedule: Q01DX001 (ip), vehicle: saline with Tween-80
  T/C: 95 % of control

## CCCc1ccc(O)c(O)c1
dose: 20.0 mg/kg/injection, schedule: Q01DX001 (ip), vehicle: saline
  T/C: 103 % of control
dose: 20.0 mg/kg/injection, schedule: Q01DX009 (ip), vehicle: saline
  T/C: 105 % of control
dose: 40.0 mg/kg/injection, schedule: Q01DX001 (ip), vehicle: saline
  T/C: 96 % of control
dose: 40.0 mg/kg/injection, schedule: Q01DX009 (ip), vehicle: saline
  T/C: 93 % of control
dose: 80.0 mg/kg/injection, schedule: Q01DX001 (ip), vehicle: saline
  T/C: 92 % of control

## CCOC(=O)C(C/C=C/c1ccccc1)C(C)=O (stereo not given)
[4]
  T/C: 90 % of control
[5]
  T/C: 97 % of control
[6]
  T/C: 90 % of control

## CC(=O)C1(c2ccccc2)C(C)(C)C(C)(C)C(=O)C(C)(C)C1(C)C
[12]
  T/C: 99 % of control
[13]
  T/C: 96 % of control
[14]
  T/C: 92 % of control

## Cc1cc(C#N)n(O)c1
dose: 50.0 mg/kg/injection, schedule: Q01DX009 (ip), vehicle: Klucel (hydroxypropylcellulose) (HPC)
  T/C: 103 % of control
[15]
  T/C: 100 % of control
[8]
  T/C: 101 % of control

## CCOC(=O)C1C(=O)CC(=O)C(C(=O)OCC)C1c1ccc(O)cc1 (stereo not given)
[15]
  T/C: 95 % of control
[7]
  T/C: 97 % of control
[8]
  T/C: 98 % of control
[9]
  T/C: 104 % of control
[10]
  T/C: 97 % of control
[11]
  T/C: 107 % of control

## CCOC(=O)C(C#N)C(C)CC#N (stereo not given)
[16]
  T/C: 119 % of control
[17]
  T/C: 117 % of control
dose: 400.0 mg/kg/injection, schedule: Q01DX009 (ip), vehicle: saline with Tween-80
  T/C: 108 % of control

## CC12CCC(Cl)(CC1O)C2(C)C (stereo not given)
dose: 75.0 mg/kg/injection, schedule: Q01DX001 (ip), vehicle: saline
  T/C: 102 % of control
dose: 150.0 mg/kg/injection, schedule: Q01DX001 (ip), vehicle: saline
  T/C: 97 % of control

## O=S1ON=C(c2ccccc2)N1c1ccccc1Cl (stereo not given)
[7]
  T/C: 93 % of control
[9]
  T/C: 93 % of control
[11]
  T/C: 88 % of control

## CC1CC(NC(=O)CC#N)CC(C)(C)C1 (stereo not given)
dose: 50.0 mg/kg/injection, schedule: Q01DX009 (ip), vehicle: saline with Tween-80
  T/C: 93 % of control
[16]
  T/C: 90 % of control
[4]
  T/C: 94 % of control
[17]
  T/C: 97 % of control
[5]
  T/C: 102 % of control

## COC(=O)c1ccccc1NN=Nc1ccccc1Cl
[1]
  T/C: 100 % of control
[18]
  T/C: 105 % of control
[2]
  T/C: 90 % of control
[19]
  T/C: 95 % of control
[3]
  T/C: 99 % of control
[20]
  T/C: 94 % of control

## Nc1ccc(Nc2ccccc2)c(S(=O)(=O)O)c1
[21]
  T/C: 107 % of control
[18]
  T/C: 105 % of control
[22]
  T/C: 107 % of control
[19]
  T/C: 92 % of control
[23]
  T/C: 110 % of control
[20]
  T/C: 95 % of control

## CC(C)c1ccc(NCN2C(=O)c3ccccc3C2=O)cc1
[15]
  T/C: 100 % of control
[8]
  T/C: 103 % of control
[10]
  T/C: 101 % of control

## COc1ccc(/C=C2\CSC/C(=C/c3ccc(OC)cc3)C2=O)cc1
[21]
  T/C: 91 % of control
[18]
  T/C: 95 % of control
[22]
  T/C: 95 % of control
[19]
  T/C: 94 % of control
[23]
  T/C: 87 % of control
[20]
  T/C: 97 % of control

## O=S(=O)(Sc1ccc(Cl)cc1)c1ccc(Cl)cc1
[12]
  T/C: 101 % of control
[13]
  T/C: 107 % of control and 91 % of control
[14]
  T/C: 104 % of control
